Data reported in patent US7462600B2, “Macrolides” (Pfizer Inc, priority 2004, dated 2008).
Converted amounts (≈) assume the structure as drawn. Read-outs that look alike come from different tables or passages of the source.

Tests used:
Format in all cases: cell-based
[1] = system: Haemophilus influenzae 1218; experiment: MIC, microtiter broth dilution (NCCLS M100-S14), H. influenzae 1218 (susceptible)
Method in brief: (§1)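 Microtiter broth dilution; interpretation per NCCLS M100-S14; endpoint = MIC. Stock: 40 mg/ml in DMSO.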

[2] = system: Streptococcus pneumoniae 1016; experiment: MIC, microtiter broth dilution (NCCLS M100-S14), S. pneumoniae 1016 (susceptible)
Method in brief: as §1

[3] = system: Streptococcus pneumoniae 1095; details: microtiter broth dilution
Method in brief: as §1

[4] = system: Streptococcus pneumoniae 1175; details: microtiter broth dilution
Method in brief: as §1

[5] = system: Streptococcus pyogenes 1079; experiment: MIC, microtiter broth dilution (NCCLS M100-S14), S. pyogenes 1079 (ermB)
Method in brief: as §1

[6] = H. influenzae 1218 (susceptible)
[7] = S. pneumoniae 1016 (susceptible)

Row | SMILES | MIC H. influenzae 1218 ([1]; Haemophilus influenzae 1218) [µg/mL] | MIC S. pneumo. 1016 ([2]; Streptococcus pneumoniae 1016) [µg/mL] | MIC S. pneumo. 1095 ([3]; Streptococcus pneumoniae 1095) [µg/mL] | MIC S. pneumo. 1175 ([4]; Streptococcus pneumoniae 1175) [µg/mL] | MIC S. pyogenes 1079 ([5]; Streptococcus pyogenes 1079) [µg/mL] | MIC H. influenzae 1218 [1, 6] [µg/mL] | MIC S. pneumo. 1016 [2, 7] [µg/mL] | MIC S. pneumo. 1095 ([3]; S. pneumoniae 1095 (ermB)) [µg/mL] | MIC S. pneumo. 1175 ([4]; S. pneumoniae 1175 (mefA)) [µg/mL] | MIC S. pyogenes 1079 ([5]; S. pyogenes 1079 (ermB)) [µg/mL]
1 | CC[C@H]1OC(=O)[C@H](C)C(=O)[C@H](C)[C@@H](O[C@@H]2O[C@H](C)C[C@H](N(C)C)[C@H]2O)[C@](C)(OC)C[C@@H](C)C(=O)[C@H](C)[C@H]2N(CC3(C)CN(Cc4cnc5ccccc5n4)C3)C(=O)O[C@]12C [6.07] | 4 (≈ 4.77 µM) | <0.06 | 1 (≈ 1.19 µM) | 0.5 (≈ 0.597 µM) | >64.00 | – | – | – | – | –
2 | CCOc1ccc2ccccc2c1CN1CC(N2C(=O)OC3(C)C(CC)OC(=O)C(C)C(=O)C(C)C(OC4OC(C)CC(N(C)C)C4O)C(C)(OC)CC(C)C(=O)C(C)C23)C1 (stereo not shown) [Example 1.97, 3-descladinosyl-11,12-dideoxy-6-O-methyl-3-oxo-12,11-(oxycarbonyl-(1-(2-ethoxynaphthalene-1-methyl)-azetidin-3-yl)-imino)-erythromycin A] | 0.5 (≈ 0.587 µM) | <0.063 | <0.063 | <0.063 | 2 (≈ 2.35 µM) | – | – | – | – | –
3 | CCC1OC(=O)C(C)C(=O)C(C)C(OC2OC(C)CC(N(C)C)C2O)C(C)(OC)CC(C)C(=O)C(C)C2N(C3CN(Cc4c(OC)ccc5ncccc45)C3)C(=O)OC12C (stereo not shown) [Example 1.102, 3-descladinosyl-11,12-dideoxy-6-O-methyl-3-oxo-12,11-(oxycarbonyl-(1-(6-methoxyquinoline-5-methyl)-azetidin-3-yl)-imino)-erythromycin A] | 2 (≈ 2.38 µM) | <0.063 | <0.063 | <0.063 | 1 (≈ 1.19 µM) | – | – | – | – | –
4 | CCC1OC(=O)C(C)C(=O)C(C)C(OC2OC(C)CC(N(C)C)C2O)C(C)(OC)CC(C)C(=O)C(C)C2N(C3CN(S(=O)(=O)c4cccc5nonc45)C3)C(=O)OC12C (stereo not shown) [Example 3.05] | 0.25 (≈ 0.294 µM) | <0.06 | 2 (≈ 2.35 µM) | <0.06 | 16 (≈ 18.8 µM) | – | – | – | – | –
5 | CC[C@H]1OC(=O)[C@H](C)C(=O)[C@H](C)[C@@H](O[C@@H]2O[C@H](C)C[C@H](N(C)C)[C@H]2O)[C@](C)(OC)C[C@@H](C)C(=O)[C@H](C)[C@H]2N(CC3(C)CN(Cc4ccc5ncccc5c4)C3)C(=O)O[C@]12C [6.01] | 1 (≈ 1.19 µM) | <0.06 | 0.5 (≈ 0.597 µM) | 0.5 (≈ 0.597 µM) | >64.00 | – | – | – | – | –
6 | CCC1OC(=O)C(C)C(=O)C(C)C(OC2OC(C)CC(N(C)C)C2O)C(C)(OC)CC(C)C(=O)C(C)C2N(CC3CCCN3Cc3cccc4cccnc34)C(=O)OC12C (stereo not shown) [10.05] | – | – | – | – | – | 4 (≈ 4.78 µM) | <0.06 | <0.06 | 0.12 (≈ 0.143 µM) | >64.00
7 | CCC1OC(=O)C(C)C(=O)C(C)C(OC2OC(C)CC(N(C)C)C2O)C(C)(OC)CC(C)C(=O)C(C)C2N(C3CN(Cc4cnn(-c5cccc(F)c5)c4)C3)C(=O)OC12C (stereo not shown) [Example 1.41, (1-[3-fluorophenyl]-pyrazol-4-yl)methyl] | 0.12 (≈ 0.143 µM) | <0.06 | <0.06 | <0.06 | >64.00 | – | – | – | – | –
8 | CCCC(c1ccnc2ccccc12)N1CC(N2C(=O)OC3(C)C(CC)OC(=O)C(C)C(=O)C(C)C(OC4OC(C)CC(N(C)C)C4O)C(C)(OC)CC(C)C(=O)C(C)C23)C1 (stereo not shown) [Example 1.64, 3-descladinosyl-11,12-dideoxy-6-O-methyl-3-oxo-12,11-(oxycarbonyl-(1-(1-(quinolin4-yl)-butyl)-azetidin-3-yl)-imino)-erythromycin A] | 1 (≈ 1.17 µM) | <0.06 | <0.06 | <0.06 | 1 (≈ 1.17 µM) | – | – | – | – | –
9 | CCC1OC(=O)C(C)C(=O)C(C)C(OC2OC(C)CC(N(C)C)C2O)C(C)(OC)CC(C)C(=O)C(C)C2N(CC3CCN(Cc4cnc5ccccc5c4)C3)C(=O)OC12C (stereo not shown) [11.03] | – | – | – | – | – | 2 (≈ 2.39 µM) | <0.06 | <0.06 | 0.5 (≈ 0.597 µM) | 64 (≈ 76.5 µM)
10 | CCC1OC(=O)C(C)C(=O)C(C)C(OC2OC(C)CC(N(C)C)C2O)C(C)(OC)CC(C)C(=O)C(C)C2N(C3CCN(Cc4cccc5ncccc45)C3)C(=O)OC12C [Example 9.02, 3-descladinosyl-11,12-dideoxy-6-O-methyl-3-oxo-12,11-(oxycarbonyl-(1-((quinolin-5-yl)-methyl)-(R)-pyrrolidin-3-yl)-imino)-erythromycin A] | – | – | – | – | – | 0.5 (≈ 0.608 µM) | <0.06 | <0.06 | 0.12 (≈ 0.146 µM) | 8 (≈ 9.72 µM)
11 | CCC1OC(=O)C(C)C(=O)C(C)C(OC2OC(C)CC(N(C)C)C2O)C(C)(OC)CC(C)C(=O)C(C)C2N(CC3CN(Cc4n[nH]c5ncccc45)C3)C(=O)OC12C.O=CO (stereo not shown) [4.43] | 0.25 | <0.06 | 0.12 | 1 | >64.00 | – | – | – | – | –
12 | CCC1OC(=O)C(C)C(=O)C(C)C(OC2OC(C)CC(N(C)C)C2O)C(C)(OC)CC(C)C(=O)C(C)C2N(C3CN(S(=O)(=O)c4c(C)noc4C)C3)C(=O)OC12C (stereo not shown) [Example 3.32, 3,5-dimethylisoxazole-4-sulfonyl] | 2 (≈ 2.42 µM) | <0.06 | 0.5 (≈ 0.605 µM) | 0.12 (≈ 0.145 µM) | 32 (≈ 38.7 µM) | – | – | – | – | –
13 | CCC1OC(=O)C(C)C(=O)C(C)C(OC2OC(C)CC(N(C)C)C2O)C(C)(OC)CC(C)C(=O)C(C)C2N(C3CN(Cc4c(C)cnc5ncccc45)C3)C(=O)OC12C (stereo not shown) [Example 1.99, 3-descladinosyl-11,12-dideoxy-6-O-methyl-3-oxo-12,11-(oxycarbonyl-(1-(3-methyl-1,8-naphthyridine-4-methyl)-azetidin-3-yl)-imino)-erythromycin A] | 1 (≈ 1.21 µM) | <0.063 | <0.063 | <0.063 | 0.5 (≈ 0.607 µM) | – | – | – | – | –
14 | CCC1OC(=O)C(C)C(=O)C(C)C(OC2OC(C)CC(N(C)C)C2O)C(C)(OC)CC(C)C(=O)C(C)C2N(C3CN(S(=O)(=O)c4cccc(-c5nnco5)c4)C3)C(=O)OC12C (stereo not shown) [Example 3.62, 3-descladinosyl-11,12-dideoxy-6-O-methyl-3-oxo-12,11-(oxycarbonyl-(1-(3-(1,3,4-oxadiazol-2-yl)benzenesulfonyl)-azetidin-3-yl)-imino)erythromycin A] | 2 (≈ 2.28 µM) | <0.06 | <0.06 | 0.5 (≈ 0.571 µM) | 8 (≈ 9.13 µM) | – | – | – | – | –
15 | CC[C@H]1OC(=O)[C@H](C)C(=O)[C@H](C)[C@@H](O[C@@H]2O[C@H](C)C[C@H](N(C)C)[C@H]2O)[C@](C)(OC)C[C@@H](C)C(=O)[C@H](C)[C@H]2N(CC3(C)CN(Cc4ccc5cccnc5c4)C3)C(=O)O[C@]12C [6.06] | 1 (≈ 1.19 µM) | <0.06 | 0.5 (≈ 0.597 µM) | 0.5 (≈ 0.597 µM) | >64.00 | – | – | – | – | –
16 | CC[C@H]1OC(=O)[C@H](C)C(=O)[C@H](C)[C@@H](O[C@@H]2O[C@H](C)C[C@H](N(C)C)[C@H]2O)[C@](C)(OC)C[C@@H](C)C(=O)[C@H](C)[C@H]2N(CC3(O)CN(C(=O)c4cn5ccccc5n4)C3)C(=O)O[C@]12C.O=CO [7.29] | – | – | – | – | – | 1 | <0.06 | 0.25 | 8 | >64.00
17 | CCC1OC(=O)C(C)C(=O)C(C)C(OC2OC(C)CC(N(C)C)C2O)C(C)(OC)CC(C)C(=O)C(C)C2N(CC3CCN(C(=O)c4cnc5ccccc5n4)C3)C(=O)OC12C (stereo not shown) [13.13] | – | – | – | – | – | 16 (≈ 18.8 µM) | <0.06 | >64.00 | 0.5 (≈ 0.587 µM) | >64.00
18 | CCC1OC(=O)C(C)C(=O)C(C)C(OC2OC(C)CC(N(C)C)C2O)C(C)(OC)CC(C)C(=O)C(C)C2N(C3CN(Cc4ccnc5c(OC)cccc45)C3)C(=O)OC12C (stereo not shown) [Example 1.84, 3-descladinosyl-11,12-dideoxy-6-O-methyl-3-oxo-12,11-(oxycarbonyl-(1-(8-methoxyquinoline-4-methyl)-azetidin-3-yl)-imino)erythromycin A] | 2 (≈ 2.38 µM) | <0.063 | <0.063 | <0.063 | 8 (≈ 9.53 µM) | – | – | – | – | –
19 | CCC1OC(=O)C(C)C(=O)C(C)C(OC2OC(C)CC(N(C)C)C2O)C(C)(OC)CC(C)C(=O)C(C)C2N(CC3CN(Cc4ccn(-c5cccnc5)n4)C3)C(=O)OC12C.O=CO (stereo not shown) [4.30] | 0.5 | <0.06 | >64.00 | 0.25 | >64.00 | – | – | – | – | –
20 | CCC1OC(=O)C(C)C(=O)C(C)C(OC2OC(C)CC(N(C)C)C2O)C(C)(OC)CC(C)C(=O)C(C)C2N(CC3CCCN3C(=O)c3cncc4ccccc34)C(=O)OC12C.O=CO (stereo not shown) [10.20] | – | – | – | – | – | 2 | <0.06 | <0.06 | 0.12 | 64
